Legend:
[1] = tested on: HCV genotype 1b (Con1) replicon in HUH-7 cells; test: HCV replicon luciferase reporter assay, genotype 1b; assay type: cell-based; conditions: Hepatitis C virus, Huh-7, 72 h, HCV genotype 1b replicon luciferase, 3 days incubation, read-out: LE_1b (EC50, range)
Outline: (§1)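 Replicon inhibition for both genotypes was measured as Renilla luciferase signal (EnduRen, 7.5 μM final, 2 h) after 3-day, 37° C exposure of replicon-bearing HUH-7 cells in 4% FCS DMEM, 0.5% DMSO. The 1b construct carries S1179I; the 1a H77 construct carries P1496L and S2204I. Twenty-point, 3-fold dilutions were fitted four-parametrically for EC50, and CC50 was taken from multiplexed Cell Titer-Blue.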

[2] = tested on: HCV genotype 1a (H77 strain) replicon in HUH-7 cells; test: HCV replicon luciferase reporter assay, genotype 1a; assay type: cell-based; conditions: Hepatitis C virus, Huh-7, 72 h, HCV genotype 1a replicon luciferase, 3 days incubation, read-out: LE_1a (EC50, range)
Outline: as §1

| Compound | EC50 [1] [nM] | EC50 [2] [nM] |
| --- | --- | --- |
| CC[C@@H]1C[C@H](C)CC/C=C\[C@@H]2C[C@@]2(C(=O)NS(=O)(=O)C2(C)CC2)NC(=O)[C@@H]2C[C@@H](Oc3nccc4cc(OC)c(F)cc34)CN2C(=O)[C@H]1NC(=O)N1CCC(F)(F)CC1 [Compound 4344, (2R,6S,7R,9R,13aS,14aR,16aS,Z)-6-(4,4-difluoropiperidine-1-carboxamido)-7-ethyl-2-((7-fluoro-6-methoxyisoquinolin-1-yl)oxy)-9-methyl-N-((1-methylcyclopropyl)sulfonyl)-5,16-dioxo-1,2,3,5,6,7,8,9,10,11,13a,14,14a,15,16,16a-hexadecahydrocyclopropa[e]pyrrolo[1,2-a][1,4]diazacyclopentadecine-14a-carboxamide] | 1.01 to 5 | 1.01 to 5 |
| COc1ccc2c(O[C@@H]3C[C@H]4C(=O)N[C@]5(C(=O)NS(=O)(=O)C6(F)CC6)C[C@H]5/C=C\CC[C@@H](C)C[C@@H](C)[C@H](NC(=O)OC5CCCC5)C(=O)N4C3)nccc2c1 [Compound 4019] | < 5.46 | < 5.46 |
| CC[C@@H]1C[C@H](C)CC/C=C\[C@@H]2C[C@@]2(C(=O)NS(=O)(=O)C2CC2)NC(=O)[C@@H]2C[C@@H](Oc3nc(-c4ccc(OC(C)C)cn4)cc4cc(OC)ccc34)CN2C(=O)[C@H]1NC(=O)OC(C)(C)C(C)(F)F [Compound 5483, 3,3-difluoro-2-methylbutan-2-yl((2R,6S,7R,9R,13aS,14aR,16aS,Z)-14a-((cyclopropylsulfonyl)carbamoyl)-7-ethyl-2-((3-(5-isopropoxypyridin-2-yl)-6-methoxyisoquinolin-1-yl)oxy)-9-methyl-5,16-dioxo-1,2,3,5,6,7,8,9,10,11,13a,14,14a,15,16,16a-hexadecahydrocyclopropa[e]pyrrolo[1,2-a][1,4]diazacyclopentadecin-6-yl)carbamate] | 1.01 to 5 | 1.01 to 5 |
| C[C@H]1CC/C=C\[C@@H]2C[C@@]2(C(=O)NS(=O)(=O)C2CC2)NC(=O)[C@@H]2C[C@@H](Oc3nccc4c5c(ccc34)N(C)CCO5)CN2C(=O)[C@@H](NC(=O)OC(C)(C)C(F)(F)F)[C@H](C)C1 [Compound 5277, 1,1,1-trifluoro-2-methylpropan-2-yl((2R,6S,7R,9S,13aS,14aR,16aS,Z)-14a-((cyclopropylsulfonyl)carbamoyl)-7,9-dimethyl-2-((4-methyl-3,4-dihydro-2H-[1,4]oxazino[2,3-f]isoquinolin-7-yl)oxy)-5,16-dioxo-1,2,3,5,6,7,8,9,10,11,13a,14,14a,15,16,16a-hexadecahydrocyclopropa[e]pyrrolo[1,2-a][1,4]diazacyclopentadecin-6-yl)carbamate] | < 5.46 | < 5.46 |
| CCCOc1ccc2c(O[C@@H]3C[C@H]4C(=O)N[C@]5(C(=O)NS(=O)(=O)C6CC6)C[C@H]5/C=C\CC[C@H](C)C[C@@H](C)[C@H](NC(=O)OC(C)(C)C(F)(F)F)C(=O)N4C3)nccc2c1 [Compound 5170, 1,1,1-trifluoro-2-methylpropan-2-yl((2R,6S,7R,9S,13aS,14aR,16aS,Z)-14a-((cyclopropylsulfonyl)carbamoyl)-7,9-dimethyl-5,16-dioxo-2-((6-propoxyisoquinolin-1-yl)oxy)-1,2,3,5,6,7,8,9,10,11,13a,14,14a,15,16,16a-hexadecahydrocyclopropa[e]pyrrolo[1,2-a][1,4]diazacyclopentadecin-6-yl)carbamate] | < 5.46 | 4.82 to 103 |
| C[C@H]1CC/C=C\[C@@H]2C[C@@]2(C(=O)NS(=O)(=O)C2CC2)NC(=O)[C@@H]2C[C@@H](Oc3nccc4c5c(ccc34)N(C)CCO5)CN2C(=O)[C@@H](NC(=O)c2ccc(N(C)C)cc2)[C@H](C)C1 [Compound 5289, (2R,6S,7R,9S,13aS,14aR,16aS,Z)—N-(cyclopropylsulfonyl)-6-(4-(dimethylamino)benzamido)-7,9-dimethyl-2-((4-methyl-3,4-dihydro-2H-[1,4]oxazino[2,3-f]isoquinolin-7-yl)oxy)-5,16-dioxo-1,2,3,5,6,7,8,9,10,11,13a,14,14a,15,16,16a-hexadecahydrocyclopropa[e]pyrrolo[1,2-a][1,4]diazacyclopentadecine-14a-carboxamide] | < 5.46 | 4.82 to 103 |
